3 compounds from patent US20220348572A1, “BRIDGED HETEROCYCLYL-SUBSTITUTED PYRIMIDINE COMPOUND, PREPARATION METHOD THEREFOR, AND PHARMACEUTICAL USE THEREOF” (The National Institutes of Pharmaceutical R&D Co., Ltd., priority 2019, published 2022) can be followed below.

SMILES strings stand for the structures.

For data set [1], the system named is IFN-2α-stimulated TYK2/JAK1-mediated pathway (pSTAT3). As to the kind of experiment: Inhibition of STAT3 signaling pathway of human whole blood (IFN-2α-induced pSTAT3, flow cytometry). It counts as cell-based. How it is done: Test Example 3: Inhibition Effect of the Compounds of the Present Invention on STAT3 Signaling Pathway of Human Whole Blood
Sample preparation: The compounds of the present invention and the control were dissolved in DMSO solvent respectively to formulate into 10 mM initial liquid. The maximum concentration of the compound was 10 μM, 3-fold dilution, 10 concentration gradients, and duplicate wells for each concentration gradient.
Experimental process: 20 μL of the compound of the present invention was added to a flow cytometer tube (BD, 352052) containing 180 μL anticoagulant sodium heparin. 20 μL PBS was added to the control. The sample was incubated at 37° C. for 30 min. 2 μL stimulating factor was added and then incubated at 37° C. for 20 min. 1 mL erythrocyte lysate was rapidly added, and the sample was repeatedly inverted 5-10 times or vortexed and then incubated at 37° C. for 10 min. The sample was centrifuged at 600 g for 6-8 min. The supernatant was discarded. The precipitate was vortexed until suspending. The cells were washed with 3 mL PBS and centrifuged at 600 g for 6-8 min. The supernatant was discarded. The precipitate was vortexed until suspending. 1 mL of membrane breaking solution was added, and the system was mixed gently, incubated on ice for 30 min, and centrifuged at 600 g for 6-8 min. The supernatant was discarded. The precipitate was vortexed until suspending. The cells were washed. 3 mL PBS was added. The system was centrifuged at 600 g for 6-8 min. The supernatant was discarded. The precipitate was vortexed untile suspending. The process was repeated twice. 100 μL PBS was added to each staining tube. IFN-2a was added for stimulation, and CD3 and pSTAT3 antibodies […] were added. The system was mixed well, protected from light and incubated at room temperature for 60 min. The cells were washed. 3 mL PBS was added. The system was centrifuged at 600 g for 6-8 min. The supernatant was discarded. The precipitate was vortexed until suspending. The precipitate was suspended in 150 μL in the dark for the flow cytometry analysis. The IC50 (half inhibitory concentration) of the compounds was obtained by using the following non-linear fitting equation:
Y=Bottom+(Top−Bottom)/(1+10^((Log IC50−X)*HillSlope));
X: Log value of the concentration of the compound;
Bottom: The minimum value, Top: The maximum value, HillSlope: Slope
The inhibition effect of by the compounds of the present invention on the IFN-2α-stimulated TYK2/JAK1-mediated pathway is shown in Table 3. IC50 value of 0-100 nM is shown as A, IC50 value of 100-300 nM is shown as B, IC50 value of 300-1000 nM is shown as C, IC50 value which is greater than 1000 nM is shown as D. NT means not tested.
A general note: A flow cytometer gives signals particle by particle.

Data set [2] in a line: Pharmacokinetic study in rats after oral administration. It is filed as in vivo, SD rats. The note with it: for pharmacokinetic parameters (in words): oral administration in SD rats; for AUC(0-t) / Cmax: rat, male SD rats, oral 5 mg/kg, plasma. How it is done:
Experimental Example 5: Pharmacokinetic Studies of the Compounds of Example 1, Example 1-a, Example 1-b and Example 3 in Rats In order to investigate the blood concentration and pharmacokinetic parameters of the compounds of the present invention after oral administration, the corresponding LC/MS/MS assay and plasma treatment methods were developed for the compounds of the Experimental Examples. […] Male SD rats were orally administered at a dose of 5 mg/kg. Blood was orbitally collected and anticoagulated with sodium heparin. The plasma was deproteinated with acetonitrile. The samples were analyzed by LC/MS/MS method. Wherein, AUC<1000 μg/L*h is shown as C, AUC between 1000-2000 μg/L*h is shown as B, AUC>2000 μg/L*h is shown as A; Cmax<600 μg/L is shown as C, Cmax between 600-900 μg/L is shown as B, and Cmax>900 μg/L is shown as A.

Another data set deals with T1, TYK2 kinase (Homo sapiens, UniProt P29597).
T1 sequence (P29597 897-1187 limits assumed): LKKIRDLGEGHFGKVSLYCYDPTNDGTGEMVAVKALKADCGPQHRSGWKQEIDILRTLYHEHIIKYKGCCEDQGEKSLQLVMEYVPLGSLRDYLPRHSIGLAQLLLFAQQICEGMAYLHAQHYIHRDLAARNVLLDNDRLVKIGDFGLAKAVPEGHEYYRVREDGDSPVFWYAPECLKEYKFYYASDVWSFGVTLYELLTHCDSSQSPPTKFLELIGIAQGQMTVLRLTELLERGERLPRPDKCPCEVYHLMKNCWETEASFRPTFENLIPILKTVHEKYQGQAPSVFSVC
The experiment in a line: In vitro inhibitory activity on Tyk2 kinase (ADP-Glo Kinase Assay). It is filed as biochemical. The note with it: TYK2 kinase 4 nM, 1 mM ATP. How it is done:
Test Example 2: Determination of In Vitro Inhibitory Activity of the Compounds of the Present Invention on Tyk2 Kinase Experimental materials: TYK2 (Invitrogen, PV4790), ATP (Promega, V915B), ADP-Glo Kinase Assay (Promega, V9101), IRS1 (Signalchem, 140-58-1000). Sample preparation: The compounds of the present invention and the control product were dissolved in DMSO solvent respectively to formulate into 10 mM initial liquid. The maximum concentration of the compound was 10 μM, 3-fold dilution, 10 concentration gradients, and duplicate wells for each concentration gradient. Experimental process: 0.1 μL of the compound to be tested was transferred into a 384 reaction plate (PE, 6007290) via Echo and centrifuged at 1000 rpm/min for 1 min. 5 μL TYK2 kinase (final concentration of 4 nM) was transferred into the 384 reaction plate, which was then centrifuged at 1000 rpm/min for 1 min, and incubated at 25° C. for 15 min. 5 μL substrate mixture (1 mM ATP, IRS1 0.05 mg/ml, kinase buffer solution) was transferred into the 384 reaction plate, which was then centrifuged at 1000 rpm/min for 1 min, and incubated at 25° C. for 60 min. 10 μL ADP-Glo was transferred into the 384 reaction plate, which was then centrifuged at 1000 rpm/min for 1 min, and incubated at 25° C. for 40 min. 20 μL test solution was transferred into the 384 reaction plate, which was centrifuged at 1000 rpm/min for 1 min and incubated at 25° C. for 40 min. RLU (Relative luminescence unit) signal was read by using an Envision multifunctional plate reader. The signal intensity was used to characterize the degree of the kinase activity. […] IC50 value of 0-100 nM is shown as A, IC50 value of 100-300 nM is shown as B, IC50 value of 300-1000 nM is shown as C, and IC50 value which is greater than 1000 nM is shown as D. NT means not tested.
In general terms: In ADP-Glo the light output rises with the ADP produced.

The IC50 is the midpoint of a concentration-inhibition curve. Lower therefore signals higher potency. What is called AUC(0-t) is the area under the concentration-time curve up to a stated or last time point. What is called Cmax is the peak of the concentration-time curve. The compound `Cn1cc(Nc2nccc(C3=CC4CCC(C3)N4C(=O)[C@@H]3CC3(F)F)n2)cn1` (stereo partly drawn) [Compound 1, ((S)-2,2-difluorocyclopropyl)(3-(2-((1-methyl-1H-pyrazol-4-yl)amino)pyrimidin-4-yl)-8-azabicyclo[3.2.1]oct-2-en-8-yl)methanone] returned an IC50 in data set [1] of under 100 nM. In data set [2], the “pharmacokinetic parameters (in words)” value is reported as “good pharmacokinetic parameters”, the AUC(0-t) is over 2000 ng·h/mL and the Cmax was over 900 ng/mL. Besides, on TYK2 kinase, the IC50 is under 100 nM.

The compound `Cn1cc(Nc2nccc(C3=C[C@H]4CC[C@@H](C3)N4C(=O)[C@@H]3CC3(F)F)n2)cn1` [Compound 1-b, ((S)-2,2-difluorocyclopropyl)((1R,5S)-3-(2-((1-methyl-1H-pyrazol-4-yl)amino)pyrimidin-4-yl)-8-azabicyclo[3.2.1]oct-2-en-8-yl)methanone] gave an IC50 in data set [1] of under 100 nM. Moreover, in data set [2], the “pharmacokinetic parameters (in words)” value is given as “good pharmacokinetic parameters”, the exposure AUC(0-t) is over 2000 ng·h/mL and the highest concentration (Cmax) was over 900 ng/mL. This compound also yielded an IC50 against TYK2 kinase of under 100 nM.

`Cn1cc(Nc2nccc(C3=CC4CCC(C3)N4C(=O)NCC(F)(F)F)n2)cn1` (stereo not drawn) [Compound 3, 3-(2-((1-methyl-1H-pyrazol-4-yl)amino)pyrimidin-4-yl)-N-(2,2,2-trifluoroethyl)-8-azabicyclo[3.2.1]oct-2-ene-8-carboxamide] returned an IC50 in data set [1] of under 100 nM. In data set [2], the “pharmacokinetic parameters (in words)” value was “good pharmacokinetic parameters”, the AUC(0-t) lay within 1000 to 2000 ng·h/mL and the Cmax was in the range of 600 to 900 ng/mL. At TYK2 kinase, this compound came in with an IC50 of under 100 nM.
